In PubChem BioAssay (NCI):
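Briefly, cells in 96-well plates were exposed to five compound concentrations for 48 h, and endpoints were estimated by linear interpolation. TGI is the concentration that stops growth completely.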

What was measured:
Assay in all cases: NCI anticancer screen, dose series, 48 h
[1] = tested on: 786-0 renal
[2] = tested on: A498 renal
[3] = tested on: ACHN renal
[4] = tested on: CAKI-1 renal
[5] = tested on: CCRF-CEM leukemia
[6] = tested on: COLO 205 colon
[7] = tested on: DU-145 prostate
[8] = tested on: EKVX NSCLC
[9] = tested on: HCC-2998 colon
[10] = tested on: HCT-116 colon
[11] = tested on: HCT-15 colon
[12] = tested on: HL-60(TB) leukemia
[13] = tested on: HOP-62 NSCLC
[14] = tested on: HOP-92 NSCLC
[15] = tested on: HS 578T breast
[16] = tested on: HT29 colon
[17] = tested on: IGROV1 ovarian
[18] = tested on: KM12 colon
[19] = tested on: LOX IMVI melanoma
[20] = tested on: M14 melanoma
[21] = tested on: MCF7 breast
[22] = tested on: MDA-MB-231 breast
[23] = tested on: MDA-MB-435
[24] = tested on: MDA-N
[25] = tested on: MOLT-4 leukemia
[26] = tested on: NCI-H226 lung
[27] = tested on: NCI-H23 lung
[28] = tested on: NCI-H460 lung
[29] = tested on: NCI-H522 lung
[30] = tested on: NCI/ADR-RES ovarian
[31] = tested on: OVCAR-3 ovarian
[32] = tested on: OVCAR-5 ovarian
[33] = tested on: OVCAR-8 ovarian
[34] = tested on: RPMI-8226 leukemia
[35] = tested on: RXF 393 renal
[36] = tested on: SF-268 CNS
[37] = tested on: SF-295 CNS
[38] = tested on: SF-539 CNS
[39] = tested on: SK-MEL-5 melanoma
[40] = tested on: SK-OV-3 ovarian
[41] = tested on: SN12C renal
[42] = tested on: SNB-75 CNS
[43] = tested on: SR leukemia
[44] = tested on: SW-620 colon
[45] = tested on: T-47D breast
[46] = tested on: TK-10 renal
[47] = tested on: U251 CNS
[48] = tested on: UACC-257 melanoma
[49] = tested on: UACC-62 melanoma
[50] = tested on: UO-31 renal
[51] = tested on: A549 NSCLC
[52] = tested on: BT-549 breast
[53] = tested on: K-562 leukemia
[54] = tested on: OVCAR-4 ovarian
[55] = tested on: PC-3 prostate
[56] = tested on: SK-MEL-2 melanoma
[57] = tested on: SK-MEL-28 melanoma

`CCOC(=O)/C=C/C(=O)O/C=C/[N+](=O)[O-]` showed a TGI [1] greater than 100 µM, a TGI [2] greater than 100 µM and a TGI [3] greater than 100 µM. For the same molecule, the TGI [4] was 78.1 µM, the TGI [5] was greater than 100 µM and the TGI [6] was greater than 100 µM. It also gave a TGI [7] greater than 100 µM, a TGI [8] greater than 100 µM and a TGI [9] greater than 100 µM. It also gave a TGI [10] greater than 100 µM, a TGI [11] greater than 100 µM and a TGI [12] greater than 100 µM. For the same molecule, the TGI [13] was greater than 100 µM, the TGI [14] was greater than 100 µM and the TGI [15] was greater than 100 µM. For the same molecule, the TGI [16] was greater than 100 µM, the TGI [17] was greater than 100 µM and the TGI [18] was greater than 100 µM. The TGI [19] was greater than 100 µM, the TGI [20] was greater than 100 µM and the TGI [21] was greater than 100 µM. For the same molecule, the TGI [22] was greater than 100 µM, the TGI [23] was greater than 100 µM and the TGI [24] was greater than 100 µM. For the same molecule, the TGI [25] was greater than 100 µM, the TGI [26] was greater than 100 µM and the TGI [27] was greater than 100 µM. For the same molecule, the TGI [28] was greater than 100 µM, the TGI [29] was greater than 100 µM and the TGI [30] was greater than 100 µM. It also gave a TGI [31] greater than 100 µM, a TGI [32] greater than 100 µM and a TGI [33] greater than 100 µM. The TGI [34] was greater than 100 µM, the TGI [35] was greater than 100 µM and the TGI [36] was greater than 100 µM. It also gave a TGI [37] greater than 100 µM, a TGI [38] greater than 100 µM and a TGI [39] greater than 100 µM. It also gave a TGI [40] greater than 100 µM, a TGI [41] greater than 100 µM and a TGI [42] greater than 100 µM. It also gave a TGI [43] greater than 100 µM, a TGI [44] greater than 100 µM and a TGI [45] greater than 100 µM. It also gave a TGI [46] greater than 100 µM, a TGI [47] greater than 100 µM and a TGI [48] greater than 100 µM. The TGI [49] was greater than 100 µM and the TGI [50] was greater than 100 µM.
Work on `CCOC(=O)c1[nH]cc(C)c1-c1cccn1-c1ccc(Cl)cc1[N+](=O)[O-]` yielded a TGI [1] of 36.1 µM, a TGI [2] greater than 100 µM and a TGI [51] of 92.9 µM. For the same molecule, the TGI [3] was greater than 100 µM, the TGI [52] was 83.7 µM and the TGI [4] was greater than 100 µM. For the same molecule, the TGI [5] was 64.3 µM, the TGI [6] was 38.2 µM and the TGI [7] was greater than 100 µM. It also gave a TGI [8] of 88.4 µM, a TGI [9] of 66.3 µM and a TGI [10] of 30.4 µM. The TGI [11] was greater than 100 µM, the TGI [13] was 44.9 µM and the TGI [14] was 51.9 µM. For the same molecule, the TGI [15] was 51.2 µM, the TGI [16] was 30.7 µM and the TGI [17] was 49.9 µM. It also gave a TGI [53] of 53.3 µM, a TGI [18] of 52.9 µM and a TGI [19] of 31.3 µM. The TGI [20] was 41 µM, the TGI [21] was greater than 100 µM and the TGI [22] was 27.5 µM. It also gave a TGI [23] of 56.6 µM, a TGI [24] of 69.6 µM and a TGI [25] of 46.4 µM. The TGI [26] was 46.2 µM, the TGI [27] was greater than 100 µM and the TGI [28] was 48 µM. For the same molecule, the TGI [29] was 34.9 µM, the TGI [30] was 52.9 µM and the TGI [31] was 29.5 µM. For the same molecule, the TGI [54] was greater than 100 µM, the TGI [32] was greater than 100 µM and the TGI [33] was 78.9 µM. For the same molecule, the TGI [55] was 64.9 µM, the TGI [35] was 33.5 µM and the TGI [36] was 61.5 µM. It also gave a TGI [37] of 83 µM, a TGI [38] of 43.9 µM and a TGI [56] of 39.2 µM. It also gave a TGI [57] of 55.7 µM, a TGI [39] of 28.1 µM and a TGI [41] of 64.7 µM. The TGI [42] was 56.1 µM, the TGI [44] was greater than 100 µM and the TGI [45] was greater than 100 µM. For the same molecule, the TGI [46] was 41.7 µM, the TGI [47] was 33.1 µM and the TGI [48] was 67.8 µM. For the same molecule, the TGI [49] was 48.2 µM and the TGI [50] was 54.9 µM.
